Measured values reported in patent publication US20250041429A1, “COMPOUND HAVING BTK PROTEIN DEGRADATION ACTIVITY, AND MEDICAL USES THEREOF” (UBIX THERAPEUTICS, INC., priority 2021, published 2025).

Target: T1, BTK protein (Homo sapiens, UniProt Q06187)
T1 construct: endogenous in cells; host or cells: TMD-8 cells
Experiment: Measurement of BTK protein degradation ability in TMD-8 cells (Western blotting)
Assay type: cell-based
Details: harvested after 24 hours; for BTK degradation (%) 1 nM: compound 1 nM; for BTK degradation (%) 10 nM: compound 10 nM; for BTK degradation (%) 100 nM: compound 100 nM
Outline: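 BTK levels were measured by immunoblotting of equal-protein RIPA lysates, normalized to GAPDH or β-actin, with chemiluminescent or infrared detection. Lysates came from TMD-8 cells exposed to compound for 24 h at final concentrations of 0.1, 1, 10 μM or 0.0001–0.1 μM, against a DMSO control.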

T1 sequence (Q06187 whole entry): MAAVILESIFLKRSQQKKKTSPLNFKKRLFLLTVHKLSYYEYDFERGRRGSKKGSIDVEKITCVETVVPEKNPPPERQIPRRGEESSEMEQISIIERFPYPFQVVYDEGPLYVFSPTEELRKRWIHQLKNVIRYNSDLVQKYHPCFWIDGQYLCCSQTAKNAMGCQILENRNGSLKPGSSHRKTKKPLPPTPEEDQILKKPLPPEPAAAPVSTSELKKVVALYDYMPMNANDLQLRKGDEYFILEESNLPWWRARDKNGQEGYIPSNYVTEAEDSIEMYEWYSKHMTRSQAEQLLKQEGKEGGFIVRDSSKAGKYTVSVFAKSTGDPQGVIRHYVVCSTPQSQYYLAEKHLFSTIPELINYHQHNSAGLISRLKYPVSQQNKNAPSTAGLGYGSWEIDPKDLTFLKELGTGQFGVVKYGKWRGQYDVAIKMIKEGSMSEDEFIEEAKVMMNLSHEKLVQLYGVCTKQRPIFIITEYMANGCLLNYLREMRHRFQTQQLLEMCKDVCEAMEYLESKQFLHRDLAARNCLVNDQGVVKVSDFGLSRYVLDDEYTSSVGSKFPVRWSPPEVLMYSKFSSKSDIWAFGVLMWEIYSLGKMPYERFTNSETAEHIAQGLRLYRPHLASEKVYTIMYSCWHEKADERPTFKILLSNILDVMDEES

| Structure (SMILES) | BTK degradation (%) 1 nM | BTK degradation (%) 10 nM | BTK degradation (%) 100 nM |
| --- | --- | --- | --- |
| Cc1cc(-c2ccnc(Nc3ccc(N4CCN(CC5CCN(c6ccc(OC7CCC(=O)NC7=O)cn6)CC5)CC4)cc3)n2)ccc1CNC(=O)N1CC(OC(C)C)C1 (stereo not drawn) [Example 50, N-(4-(2-((4-(4-((1-(5-((2,6-dioxopiperidin-3-yl)oxy)pyridin-2-yl)piperidin-4-yl)methyl)piperazin-1-yl)phenyl)amino)pyrimidin-4-yl)-2-methylbenzyl)-3-isopropoxyazetidine-1-carboxamide] | 19.7% | 82.0% | 99.3% |
| Cc1cc(-c2ccnc(Nc3ccc(C4CCN(CC5CCN(c6ccc(OC7CCC(=O)NC7=O)cn6)CC5)CC4)cc3)n2)ccc1CNC(=O)N1CC(OC(C)C)C1 (stereo not drawn) [Example 51, N-(4-(2-((4-(1-((1-(5-((2,6-dioxopiperidin-3-yl)oxy)pyridin-2-yl)piperidin-4-yl)methyl)piperidin-4-yl)phenyl)amino)pyrimidin-4-yl)-2-methylbenzyl)-3-isopropoxyazetidine-1-carboxamide] | 24.0% | 86.7% | 99.3% |
| Cc1cc(-c2ccnc(Nc3ccc(N4CCN(CC5CCN(c6ccc(NC7CCC(=O)NC7=O)cn6)CC5)CC4)cc3)n2)ccc1CNC(=O)N1CC(OC(C)C)C1 (stereo not drawn) [Example 52, N-(4-(2-((4-(4-((1-(5-((2,6-dioxopiperidin-3-yl)amino)pyridin-2-yl)piperidin-4-yl)methyl)piperazin-1-yl)phenyl)amino)pyrimidin-4-yl)-2-methylbenzyl)-3-isopropoxyazetidine-1-carboxamide] | 24.0% | 92.0% | 99.3% |
| Cc1cc(-c2ccnc(Nc3ccc(C4CCN(CC5CCN(c6ccc(NC7CCC(=O)NC7=O)cn6)CC5)CC4)cc3)n2)ccc1CNC(=O)N1CC(OC(C)C)C1 (stereo not drawn) [Example 53, N-(4-(2-((4-(1-((1-(5-((2,6-dioxopiperidin-3-yl)amino)pyridin-2-yl)piperidin-4-yl)methyl)piperidin-4-yl)phenyl)amino)pyrimidin-4-yl)-2-methylbenzyl)-3-isopropoxyazetidine-1-carboxamide] | 13.3% | 86.7% | 99.3% |
| Cc1cc(-c2ccnc(Nc3ccc(N4CCN(CC5CCN(c6cccc(NC7CCC(=O)NC7=O)c6)CC5)CC4)cc3)n2)ccc1CNC(=O)N1CC(OC(C)C)C1 (stereo not drawn) [Example 54, N-(4-(2-((4-(4-((1-(3-((2,6-dioxopiperidin-3-yl)amino)phenyl)piperidin-4-yl)methyl)piperazin-1-yl)phenyl)amino)pyrimidin-4-yl)-2-methylbenzyl)-3-isopropoxyazetidine-1-carboxamide] | 38.7% | 95.0% | 99.7% |
| Cc1cc(-c2ccnc(Nc3ccc(N4CCN(CC5CCN(c6ccc(NC7CCC(=O)NC7=O)cc6)CC5)CC4)cc3)n2)ccc1CNC(=O)N1CC(OC(C)C)C1 (stereo not drawn) [Example 55, N-(4-(2-((4-(4-((1-(4-((2,6-dioxopiperidin-3-yl)amino)phenyl)piperidin-4-yl)methyl)piperazin-1-yl)phenyl)amino)pyrimidin-4-yl)-2-methylbenzyl)-3-isopropoxyazetidine-1-carboxamide] | 37.7% | 94.7% | 99.7% |
| Cc1cc(-c2ccnc(Nc3ccc(C4CCN(CC5CCN(c6ccc(NC7CCC(=O)NC7=O)cc6)CC5)CC4)cc3)n2)ccc1CNC(=O)N1CC(OC(C)C)C1 (stereo not drawn) [Example 56, N-(4-(2-((4-(1-((1-(4-((2,6-dioxopiperidin-3-yl)amino)phenyl)piperidin-4-yl)methyl)piperidin-4-yl)phenyl)amino)pyrimidin-4-yl)-2-methylbenzyl)-3-isopropoxyazetidine-1-carboxamide] | 13.7% | 91.3% | 99.7% |
| Cc1cc(-c2ccnc(Nc3ccc(N4CCN(CC5CCN(c6cccc(NC7CCC(=O)NC7=O)c6)CC5)CC4)cc3)n2)ccc1CNC(=O)c1cnn(C(C)C)c1 (stereo not drawn) [Example 57, N-(4-(2-((4-(4-((1-(3-((2,6-dioxopiperidin-3-yl)amino)phenyl)piperidin-4-yl)methyl)piperazin-1-yl)phenyl)amino)pyrimidin-4-yl)-2-methylbenzyl)-1-isopropyl-1H-pyrazole-4-carboxamide] | 54.0% | 95.0% | 99.5% |
| Cc1cc(-c2ccnc(Nc3ccc(N4CCN(CC5CCN(c6ccc(NC7CCC(=O)NC7=O)cn6)CC5)CC4)cc3)n2)ccc1CNC(=O)c1cnn(C(C)C)c1 (stereo not drawn) [Example 58, N-(4-(2-((4-(4-((1-(5-((2,6-dioxopiperidin-3-yl)amino)pyridin-2-yl)piperidin-4-yl)methyl)piperazin-1-yl)phenyl)amino)pyrimidin-4-yl)-2-methylbenzyl)-1-isopropyl-1H-pyrazole-4-carboxamide] | 62.0% | 97.5% | 99.0% |
| Cc1cc(-c2ccnc(Nc3ccc(N4CCN(CC5CCN(c6cccc(NC7CCC(=O)NC7=O)c6)CC5)CC4)cc3)n2)ccc1CNC(=O)c1cnn(C(C)(C)C)c1 (stereo not drawn) [Example 59, 1-(tert-butyl)-N-(4-(2-((4-(4-((1-(3-((2,6-dioxopiperidin-3-yl)amino)phenyl)piperidin-4-yl)methyl)piperazin-1-yl)phenyl)amino)pyrimidin-4-yl)-2-methylbenzyl)-1H-pyrazole-4-carboxamide] | 72.0% | 97.0% | 99.0% |
| Cc1cc(-c2ccnc(Nc3ccc(N4CCN(CC5CCN(c6ccc(NC7CCC(=O)NC7=O)cn6)CC5)CC4)cc3)n2)ccc1CNC(=O)c1cnn(C(C)(C)C)c1 (stereo not drawn) [Example 60, 1-(tert-butyl)-N-(4-(2-((4-(4-((1-(5-((2,6-dioxopiperidin-3-yl)amino)pyridin-2-yl)piperidin-4-yl)methyl)piperazin-1-yl)phenyl)amino)pyrimidin-4-yl)-2-methylbenzyl)-1H-pyrazole-4-carboxamide] | 58.0% | 96.5% | 99.5% |
| Cc1cc(-c2ccnc(Nc3ccc(N4CCN(CC5CCN(c6cccc(NC7CCC(=O)NC7=O)c6)CC5)CC4)cc3)n2)ccc1CNC(=O)c1cn(C(C)(C)C)nn1 (stereo not drawn) [Example 61, 1-(tert-butyl)-N-(4-(2-((4-(4-((1-(3-((2,6-dioxopiperidin-3-yl)amino)phenyl)piperidin-4-yl)methyl)piperazin-1-yl)phenyl)amino)pyrimidin-4-yl)-2-methylbenzyl)-1H-1,2,3-triazole-4-carboxamide] | 66.5% | 95.5% | 99.0% |
| Cc1cc(-c2ccnc(Nc3ccc(N4CCN(CC5CCN(c6ccc(NC7CCC(=O)NC7=O)cn6)CC5)CC4)cc3)n2)ccc1CNC(=O)c1cn(C(C)(C)C)nn1 (stereo not drawn) [Example 62] | 57.0% | 97.5% | 100.0% |
| Cc1cc(-c2ccnc(Nc3ccc(CN4CCN(CC5CCN(c6cccc(OC7CCC(=O)NC7=O)c6)CC5)CC4)cc3)n2)ccc1CNC(=O)N1CC(OC(C)C)C1 (stereo not drawn) [Example 63, N-(4-(2-((4-((4-((1-(3-((2,6-dioxopiperidin-3-yl)oxy)phenyl)piperidin-4-yl)methyl)piperazin-1-yl)methyl)phenyl)amino)pyrimidin-4-yl)-2-methylbenzyl)-3-isopropoxyazetidine-1-carboxamide] | 29.0% | 83.0% | 97.5% |
| Cc1cc(-c2ccnc(Nc3ccc(CN4CCN(CC5CCN(c6cccc(NC7CCC(=O)NC7=O)c6)CC5)CC4)cc3)n2)ccc1CNC(=O)N1CC(OC(C)C)C1 (stereo not drawn) [Example 64, N-(4-(2-((4-((4-((1-(3-((2,6-dioxopiperidin-3-yl)amino)phenyl)piperidin-4-yl)methyl)piperazin-1-yl)methyl)phenyl)amino)pyrimidin-4-yl)-2-methylbenzyl)-3-isopropoxyazetidine-1-carboxamide] | 43.0% | 92.5% | 98.5% |
| Cc1cc(-c2ccnc(Nc3ccc(N4CCN(CC5CCN(c6cccc(N7CCC(=O)NC7=O)c6)CC5)CC4)cc3)n2)ccc1CNC(=O)N1CC(OC(C)C)C1 [Example 65, N-(4-(2-((4-(4-((1-(3-(2,4-dioxotetrahydropyrimidin-1 (2H)-yl)phenyl)piperidin-4-yl)methyl)piperazin-1-yl)phenyl)amino)pyrimidin-4-yl)-2-methylbenzyl)-3-isopropoxyazetidine-1-carboxamide] | 32.5% | 92.0% | 99.0% |
| Cc1cc(-c2ccnc(Nc3ccc(N4CCN(CC5CCN(c6ccc(N7CCC(=O)NC7=O)cc6)CC5)CC4)cc3)n2)ccc1CNC(=O)N1CC(OC(C)C)C1 [Example 66, N-(4-(2-((4-(4-((1-(4-(2,4-dioxotetrahydropyrimidin-1 (2H)-yl)phenyl)piperidin-4-yl)methyl)piperazin-1-yl)phenyl)amino)pyrimidin-4-yl)-2-methylbenzyl)-3-isopropoxyazetidine-1-carboxamide] | 28.0% | 91.5% | 98.5% |
